One test deals with THP-1 cells. The test can be described thus: TNFα generation assay. In kind it is cell-based, human. To be noted: Table 22, read-out: IC50 in TNFα generation assay. The gist of the method:
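THP-1 cells differentiated to macrophage-like cells with 10 ng/ml IFN-γ for 2 days, preincubated with compound 30 min at room temperature, then cultured 7 h on plates coated with human IgG (10 μg/ml). Secreted TNFα measured by ELISA or AlphaLISA.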

Test [1] deals with T1, glutathione S-transferase (GST)-fused full-length human Syk protein (Homo sapiens, UniProt P43405).
T1 construct: (GST)-fused full-length human Syk protein; GST (glutathione S-transferase); purchased Carna Biosciences
The test can be described thus: Syk enzyme assay. In kind it is biochemical. To be noted: Syk enzyme assay, Test Example 1; read-out: IC50 of Syk-inhibitory activity. The procedure, abridged:
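Baculovirus-expressed enzyme (1.2 ng) was preincubated with compound in HEPES pH 7.0/MgCl2/DTT buffer, 2 min shaking then 13 min at room temperature. Biotin-EDPDYEWPSA-NH2 (0.4 μM final) and ATP (27 μM final) were added for 40 min at room temperature. EDTA stop, streptavidin-XL/PT66-K TR-FRET at 615/665 nm gave IC50.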

The mark [2] stands for this setting: Homo sapiens, THP-1, THP-1 cells.

Like-named read-outs stand apart in the source and are kept apart here. Some results are limits rather than exact numbers.

Consider `C[C@H](CN)Nc1nc(Nc2ccc3ncccc3c2)c(C(N)=O)cc1F` [Example 39-3, (R)-6-((1-aminopropan-2-yl)amino)-5-fluoro-2-((quinolin-6-yl)amino)nicotinamide], for which the IC50 in the test with THP-1 cells (setting [2]) is less than 0.065 µM; in test [1] it was less than 0.01 µM.
As for `CCC[C@@H](Nc1nc(Nc2cncc(C3CC3)c2)c(C(N)=O)cc1F)[C@H](C)N` [Example 006-223, 6-(((2S,3R)-2-aminohexan-3-yl)amino)-2-((5-cyclopropylpyridin-3-yl)amino)-5-fluoronicotinamide], the IC50 was less than 0.065 µM with THP-1 cells (setting [2]) and less than 0.01 µM in test [1].
In the case of `CCc1nn(CCOC)c2ccc(Nc3nc(N[C@@H]4CCCC[C@@H]4N)c(F)cc3C(N)=O)cc12` [Example 006-453, 6-(((1R,2S)-2-aminocyclohexyl)amino)-2-((3-ethyl-1-(2-methoxyethyl)-1H-indazol-5-yl)amino)-5-fluoronicotinamide], the IC50 with THP-1 cells (setting [2]) was less than 0.065 µM; in test [1], less than 0.01 µM.
On to `CCC[C@@H](Nc1nc(Nc2ccc3ncccc3c2)c(C(N)=O)cc1F)[C@@H](N)CC` [Example 006-200, 6-(((3S,4R)-3-aminoheptan-4-yl)amino)-5-fluoro-2-((quinolin-6-yl)amino)nicotinamide], for which the IC50 with THP-1 cells (setting [2]) was 0.065 to 0.13 µM; in test [1], less than 0.01 µM.
For `COc1cc(Nc2nc(NC[C@H](C)N)c(F)cc2C(N)=O)cc(OC)c1` [Example 006-093, (S)-6-((2-aminopropyl)amino)-2-(3,5-dimethoxyphenylamino)-5-fluoronicotinamide], the IC50 is less than 0.065 µM in the test on THP-1 cells (setting [2]) and less than 0.01 µM in test [1].
Consider `NC(=O)c1cc(F)c(N[C@@H]2CCCC[C@@H]2N)nc1Nc1cncc(-c2ccc(F)cc2F)c1` (relative stereo) [Example 004-181, 6-(cis-2-aminocyclohexylamino)-2-((5-(2,4-difluorophenyl)pyridin-3-yl)amino)-5-fluoronicotinamide], for which the figures for the IC50 (in the test on THP-1 cells (setting [2]); in test [1]) were 0.13 to 0.2 µM and less than 0.01 µM, respectively.
The like results for `COc1ccc2cc(Nc3nc(N[C@@H](CN)CC4CC4)c(F)cc3C(N)=O)cnc2c1` [Example 006-215, (R)-6-((1-amino-3-cyclopropylpropan-2-yl)amino)-5-fluoro-2-((7-methoxyquinolin-3-yl)amino)nicotinamide] were, in that order, 0.065 to 0.13 µM and less than 0.01 µM.
Consider `Cc1cc(Nc2nc(N[C@H](c3ccc(F)cc3)[C@H](C)N)c(F)cc2C(N)=O)cnc1C` [Example 006-558, 6-(((1R,2S)-2-amino-1-(4-fluorophenyl)propyl)amino)-2-((5,6-dimethylpyridin-3-yl)amino)-5-fluoronicotinamide], for which the IC50 in the test with THP-1 cells (setting [2]) is 0.065 to 0.13 µM; in test [1], less than 0.01 µM.
As for `Cn1cc(-c2cncc(Nc3nc(N[C@@H]4CCCC[C@@H]4N)c(F)cc3C(N)=O)c2)cn1` (relative stereo) [Example 004-072, 6-(cis-2-aminocyclohexylamino)-5-fluoro-2-((5-(1-methyl-1H-pyrazol-4-yl)pyridin-3-yl)-amino)nicotinamide], the values for the IC50 (in the test with THP-1 cells (setting [2]); in test [1]) were 0.13 to 0.2 µM and less than 0.01 µM, respectively.
For `Cc1cncc(Nc2nc(N[C@H](C)CN)c(F)cc2C(N)=O)c1` [Example 006-101, (R)-6-((1-aminopropan-2-yl)amino)-5-fluoro-2-((5-methylpyridin-3-yl)amino)nicotinamide], the IC50 lay within 0.065 to 0.13 µM with THP-1 cells (setting [2]) and 0.01 to 0.05 µM in test [1].
Consider `CC[C@@H](Nc1nc(Nc2ccc3c(c2)c(N2CCOCC2)nn3C)c(C(N)=O)cc1F)[C@H](C)N` [Example 006-563, 6-(((2S,3R)-2-aminopentan-3-yl)amino)-5-fluoro-2-((1-methyl-3-morpholino-1H-indazol-5-yl)amino)nicotinamide], for which the IC50 with THP-1 cells (setting [2]) was 0.13 to 0.2 µM; in test [1], less than 0.01 µM.
As for `C[C@H](N)[C@@H](C)Nc1nc(Nc2ccc3c(cnn3C)c2)c(C(N)=O)cc1F` (racemic) [Example 006-109, 6-(((2R,3S)-3-aminobutan-2-yl)amino)-5-fluoro-2-((1-methyl-1H-indazol-5-yl)amino)nicotinamide 6-(((2S,3R)-3-aminobutan-2-yl)amino)-5-fluoro-2-((1-methyl-1H-indazol-5-yl)amino)nicotinamide], the figures for the IC50 (in the test with THP-1 cells (setting [2]); in test [1]) were 0.065 to 0.13 µM and less than 0.01 µM, respectively.
In the case of `Cc1cc(Nc2nc(N[C@H](CC3CC3)[C@H](C)N)c(F)cc2C(N)=O)cnc1C` [Example 006-435, 6-(((2R,3S)-3-amino-1-cyclopropylbutan-2-yl)amino)-2-((5,6-dimethylpyridin-3-yl)amino)-5-fluoronicotinamide], the IC50 in the test with THP-1 cells (setting [2]) was 0.065 to 0.13 µM; in test [1], less than 0.01 µM.
For `CC(C)c1nn(C)c2ccc(Nc3nc(N[C@H](CC4CC4)[C@H](C)N)c(F)cc3C(N)=O)cc12` [Example 006-507, 6-(((2R,3S)-3-amino-1-cyclopropylbutan-2-yl)amino)-5-fluoro-2-((3-isopropyl-1-methyl-1H-indazol-5-yl)amino)nicotinamide], the IC50 with THP-1 cells (setting [2]) was 0.13 to 0.2 µM; in test [1], less than 0.01 µM.
For `CCC[C@@H](Nc1nc(Nc2ccnc(-c3cc(OC)ccc3F)c2)c(C(N)=O)cc1F)[C@H](C)N` [Example 006-290, 6-(((2S,3R)-2-aminohexan-3-yl)amino)-5-fluoro-2-((2-(2-fluoro-5-methoxyphenyl)pyridin-4-yl)amino)nicotinamide], the values for the IC50 (with THP-1 cells (setting [2]); in test [1]) were less than 0.065 µM and less than 0.01 µM, respectively.
In the case of `CC(C)c1nn(C)c2ccc(Nc3nc(N[C@H](C4CC4)[C@H](C)N)c(F)cc3C(N)=O)cc12` [Example 006-580, 6-(((1R,2S)-2-amino-1-cyclopropylpropyl)amino)-5-fluoro-2-((3-isopropyl-1-methyl-1H-indazol-5-yl)amino)nicotinamide], the IC50 in the test with THP-1 cells (setting [2]) was 0.13 to 0.2 µM; in test [1] it was less than 0.01 µM.
For the compound `CCCOc1cc(Nc2nc(N[C@@H]3CCCC[C@@H]3N)c(F)cc2C(N)=O)ccn1` [Example 006-169, 6-(((1R,2S)-2-aminocyclohexyl)amino)-5-fluoro-2-((2-propoxypyridin-4-yl)amino)nicotinamide], the IC50 was less than 0.065 µM in the test on THP-1 cells (setting [2]) and less than 0.01 µM in test [1].
Take `NC(=O)c1cc(F)c(N[C@@H]2CCCC[C@@H]2N)nc1Nc1cc(-n2cncn2)nc2[nH]ccc12` (relative stereo) [Example 004-069, 2-((6-(1H-1,2,4-triazol-1-yl)-1H-pyrrolo[2,3-b]pyridin-4-yl)amino)-6-(cis-2-aminocyclohexylamino)-5-fluoronicotinamide]: the IC50 is 0.065 to 0.13 µM in the test with THP-1 cells (setting [2]) and less than 0.01 µM in test [1].
Turning to `NC(=O)c1cc(F)c(N[C@@H]2CCCC[C@@H]2N)nc1Nc1cnc2ncsc2c1` [Example 004-026], the IC50 in the test on THP-1 cells (setting [2]) is less than 0.065 µM; in test [1], less than 0.01 µM.
As to `C[C@H](N)[C@@H](CC1CC1)Nc1nc(Nc2cncc(-c3ccccc3)c2)c(C(N)=O)cc1F` [Example 006-351, 6-(((2R,3S)-3-amino-1-cyclopropylbutan-2-yl)amino)-5-fluoro-2-((5-phenylpyridin-3-yl)amino)nicotinamide], the IC50 in the test with THP-1 cells (setting [2]) was 0.065 to 0.13 µM; in test [1], less than 0.01 µM.
With `COCc1cc(Nc2nc(N[C@@H]3CCCC[C@@H]3N)c(F)cc2C(N)=O)ccn1` (relative stereo) [Example 004-191, 6-(cis-2-aminocyclohexylamino)-5-fluoro-2-((2-(methoxymethyl)pyridin-4-yl)amino)nicotinamide], the IC50 in the test on THP-1 cells (setting [2]) is 0.065 to 0.13 µM; in test [1], 0.01 to 0.05 µM.
The like results for `CC[C@@H](Nc1nc(Nc2ccc3cnn(C)c3c2)c(C(N)=O)cc1F)[C@H](C)N` [Example 006-358, 6-(((2S,3R)-2-aminopentan-3-yl)amino)-5-fluoro-2-((1-methyl-1H-indazol-6-yl)amino)nicotinamide] were, in that order, less than 0.065 µM and less than 0.01 µM.
For the compound `CC(C)C[C@H](CN)Nc1nc(Nc2ccnc(-c3ccoc3)c2)c(C(N)=O)cc1F` [Example 006-155, (R)-6-((1-amino-4-methylpentan-2-yl)amino)-5-fluoro-2-((2-(furan-3-yl)pyridin-4-yl)amino)nicotinamide], the IC50 is 0.065 to 0.13 µM in the test with THP-1 cells (setting [2]) and less than 0.01 µM in test [1].
For the compound `Cc1ccc(Nc2nc(N[C@@H]3CCCC[C@@H]3N)c(F)cc2C(N)=O)cn1` [Example 006-104, 6-(((1R,2S)-2-aminocyclohexyl)amino)-5-fluoro-2-((6-methylpyridin-3-yl)amino)nicotinamide], the IC50 was 0.065 to 0.13 µM in the test with THP-1 cells (setting [2]) and less than 0.01 µM in test [1].
As to “6-(((2R,3S)-3-aminobutan-2-yl)amino)-2- ((5,6-dimethylpyridin-3-yl)amino)-5- fluoronicotinamide 6-(((2S,3R)-3-aminobutan-2-yl)amino)-2- (5,6-dimethylpyridin-3-yl)amino)-5- fluoronicotinamide [Example 006-194]”, the IC50 with THP-1 cells (THP-1 cells) fell in the range of 0.065 to 0.13 µM; in test [1] it was 0.01 to 0.05 µM.
For `NC(=O)c1cc(F)c(NC2CCCCC2N)nc1Nc1ccc(C2CC2)nc1` (centres unmarked) [Example 002-142], the IC50 is 0.13 to 0.2 µM with THP-1 cells (setting [2]) and less than 0.01 µM in test [1].
As for `COc1ccc2cc(Nc3nc(N[C@@H]4CCCC[C@@H]4N)c(F)cc3C(N)=O)cnc2c1` (relative stereo) [Example 004-128, 6-(cis-2-aminocyclohexylamino)-5-fluoro-2-((7-methoxyquinolin-3-yl)amino)nicotinamide], the figures for the IC50 (in the test on THP-1 cells (setting [2]); in test [1]) were 0.065 to 0.13 µM and less than 0.01 µM, respectively.
As for `COc1ccc(-c2cncc(Nc3nc(N[C@@H](CN)CC(C)C)c(F)cc3C(N)=O)c2)cc1` [Example 006-291, (R)-6-((1-amino-4-methylpentan-2-yl)amino)-5-fluoro-2-((5-(4-methoxyphenyl)pyridin-3-yl)amino)nicotinamide], the IC50 in the test on THP-1 cells (setting [2]) lay within 0.13 to 0.2 µM; in test [1], 0.01 to 0.05 µM.

Source of the values: US8895585B2, “Nicotinamide derivative or salt thereof” (FUJIFILM Corporation, priority 2010, dated 2014).
